# pEC50, pIC50: −log10 of the molar value.
# What was measured:
# [1] = DPPH free radical scavenging activity; details: 10–160 μM, 30 min, room temperature
# Experimental: Stable 1,1-diphenyl-2-picrylhydrazyl (DPPH) radical in ethanol (100 μM; Sigma-Aldrich) was used to measure the antioxidant activity of these LM compounds. After addition of quercetin (positive control) or LM compound (10–160 μM), the mixture was vortexed for 15 s and incubated at room temperature for 30 min. Subsequently, the mixture was measured spectrophotometrically at 517 nm (Multiskan GO microplate spectrophotometer; Thermo Fisher Scientific). The free radical scavenging activity was calculated as the percentage of DPPH discoloration using the formula 1 – (absorbance of sample/absorbance of control) × 100%, with half maximal effective concentration (EC50) calculated using the interpolation method.
# NQO1 = test: Western blot NQO1 in MPP^+-treated BE(2)-M17 cells; assay type: cell-based, human; details: BE(2)-M17, compound 10 μM + 0.62 mM MPP^+; MPP^+ alone 53%; untreated = 100%
# Experimental: HMC3 (2 × 10^5/6-well) or BE(2)-M17 (4 × 10^5/6-well) cells were lysed in buffer (composition: 50 mM Tris-HCl pH8.0, 2 mM EDTA pH8.0, 150 mM NaCl, 0.5% sodium deoxycholate, 0.1% SDS, 50 mM NaF, 1% NP40) containing the protease and/or phosphatase inhibitor cocktail (Sigma-Aldrich). After sonication, the lysates were centrifuged (12,000 × g for 10 min at 4°C) and protein concentrations determined (Bradford protein assay; Bio-Rad, Hercules, CA, USA). […] The immune complexes were detected using horseradish peroxidase (HRP)-conjugated goat anti-mouse or goat anti-rabbit IgG antibody (1:5,000; GeneTex) and chemiluminescent HRP substrate (Millipore, Burlington, MA, USA). Immunoreactive bands were captured (ImageQuant™ LAS 4000, GE Healthcare, Chicago, IL, USA) and quantified (Multi Gauge V3.0 software, Fujifilm, Tokyo, Japan).
# NRF2 = test: Western blot NRF2 in MPP^+-treated BE(2)-M17 cells; assay type: cell-based, human; details: BE(2)-M17, compound 10 μM + 0.62 mM MPP^+; MPP^+ alone 75%; untreated = 100%
# Experimental: HMC3 (2 × 10^5/6-well) or BE(2)-M17 (4 × 10^5/6-well) cells were lysed in buffer (composition: 50 mM Tris-HCl pH8.0, 2 mM EDTA pH8.0, 150 mM NaCl, 0.5% sodium deoxycholate, 0.1% SDS, 50 mM NaF, 1% NP40) containing the protease and/or phosphatase inhibitor cocktail (Sigma-Aldrich). After sonication, the lysates were centrifuged (12,000 × g for 10 min at 4°C) and protein concentrations determined (Bradford protein assay; Bio-Rad, Hercules, CA, USA). Aliquots of protein (20 μg) were separated by electrophoresis using 10%−12% SDS–polyacrylamide gel followed by transfer to a polyvinylidene fluoride (PVDF) membrane. After being blocked, the PVDF membrane was stained with NLRP3 (#15101s), caspase-1 (CASP1; #3866s), iNOS (#20609), IL-1β (#12242), CREB (#9192), BCL2-associated X (BAX; #2772; 1:1,000; Cell Signaling), IL-6 (#ab6672), TNF-α (#ab9739), GCLC (#ab41463), BDNF (#ab108319; 1:1,000; Abcam, Cambridge, UK), NLRP1 (#NBP-1-54899; 1:500; Novus Biologicals, Centennial, CO, USA), NRF2 (#ABE413), NQO1 (#N5288), p-CREB (Ser133; #06-519; 1:1,000; Sigma-Aldrich), PGC-1α (#GTX37356; 1:1,000; GeneTex, Irvine, CA, USA), B-cell lymphoma 2 (BCL2; #IR94-392; 1:1,000; iReal Biotechnology, New Taipei City, Taiwan), or glyceraldehyde-3-phosphate dehydrogenase (GAPDH; #30000002; 1:1,000; MDBio, Taipei, Taiwan) primary antibody at room temperature 2 h or 4°C overnight. The immune complexes were detected using horseradish peroxidase (HRP)-conjugated goat anti-mouse or goat anti-rabbit IgG antibody (1:5,000; GeneTex) and chemiluminescent HRP substrate (Millipore, Burlington, MA, USA). Immunoreactive bands were captured (ImageQuant™ LAS 4000, GE Healthcare, Chicago, IL, USA) and quantified (Multi Gauge V3.0 software, Fujifilm, Tokyo, Japan).
# [2] = cytotoxicity MTT assay in BE(2)-M17 cells; assay type: cell-based, human; details: human, MTT, 1–100 μM, 24 h
# Experimental: Human HMC3 microglial (CRL-3304) and neuroblastoma BE(2)-M17 (CRL-2267) cells were obtained from American Type Culture Collection. BE(2)-M17 develops a better dopaminergic phenotype than SH-SY5Y when treated with retinoic acid to direct neuronal differentiation (Carvajal-Oliveros et al., [2022]). Cells were routinely maintained in Dulbecco's Modified Eagle Medium-Nutrient Mixture F12 (DMEM-F12) supplemented with 10% fetal bovine serum (FBS; Thermo Fisher Scientific, Waltham, MA, USA) in a 37°C incubator, with 95% relative humidity and 5% CO2 (NuAire, Plymouth, MN, USA).
# To evaluate cytotoxicity of LM compounds and MPP^+, HMC3 (1 × 10^4) or BE(2)-M17 (2 × 10^4) cells were plated on 96-well dishes, grown for 20 h, and treated with LM compounds (1–100 μM) or MPP^+ [HMC3: 0–8 mM; BE(2)-M17: 0–5 mM]. Next day, 20 μl of tetrazolium dye 3-(4,5-dimethylthiazol-2-yl)-2,5-diphenyltetrazolium bromide (MTT, 5 mg/ml; Sigma-Aldrich) was added to the cells at 37°C for 3 h. The resulted insoluble purple formazan products were dissolved by lysis buffer (composition: 10% Triton X-100, 0.1 N HCl, 18% isopropanol). The absorbance of the dissolved product at optical density (OD) 570 nm was read by using a FLx800 fluorescence microplate spectrophotometer (Bio-Tek, Winooski, VT, USA). The half maximal inhibitory concentration (IC50) of LM compounds was determined through the construction of a dose-response curve. MPP^+ at 4 mM (HMC3 cell viability: 65%−69%) or 0.62 mM [BE(2)-M17 cell viability: 79%−84%] was selected to induce inflammation for further experiments.
# [3] = parameters: method as in Chiu et al., 2021; details: in vivo pharmacokinetic assessment ref Chiu et al., 2021; cited from earlier work
# p-CREB (Ser133) = test: Western blot p-CREB (Ser133) in MPP^+-treated BE(2)-M17 cells; assay type: cell-based, human; details: BE(2)-M17, compound 10 μM + 0.62 mM MPP^+; MPP^+ alone 83%; untreated = 100%
# Experimental: (§1) HMC3 (2 × 10^5/6-well) or BE(2)-M17 (4 × 10^5/6-well) cells were lysed in buffer (composition: 50 mM Tris-HCl pH8.0, 2 mM EDTA pH8.0, 150 mM NaCl, 0.5% sodium deoxycholate, 0.1% SDS, 50 mM NaF, 1% NP40) containing the protease and/or phosphatase inhibitor cocktail (Sigma-Aldrich). After sonication, the lysates were centrifuged (12,000 × g for 10 min at 4°C) and protein concentrations determined (Bradford protein assay; Bio-Rad, Hercules, CA, USA). Aliquots of protein (20 μg) were separated by electrophoresis using 10%−12% SDS–polyacrylamide gel followed by transfer to a polyvinylidene fluoride (PVDF) membrane. […] The immune complexes were detected using horseradish peroxidase (HRP)-conjugated goat anti-mouse or goat anti-rabbit IgG antibody (1:5,000; GeneTex) and chemiluminescent HRP substrate (Millipore, Burlington, MA, USA). Immunoreactive bands were captured (ImageQuant™ LAS 4000, GE Healthcare, Chicago, IL, USA) and quantified (Multi Gauge V3.0 software, Fujifilm, Tokyo, Japan).
# BDNF = test: Western blot BDNF in MPP^+-treated BE(2)-M17 cells; assay type: cell-based, human; details: BE(2)-M17, compound 10 μM + 0.62 mM MPP^+; MPP^+ alone 78%; untreated = 100%
# Experimental: as §1
# BCL2 = test: Western blot BCL2 in MPP^+-treated BE(2)-M17 cells; assay type: cell-based, human; details: BE(2)-M17, compound 10 μM + 0.62 mM MPP^+; MPP^+ alone 70%; untreated = 100%
# Experimental: as §1
# TNF-α = test: Western blot TNF-α in MPP^+-stimulated HMC3 cells; assay type: cell-based, human; details: HMC3, 4 mM MPP^+ alone; untreated = 100%
# Experimental: as §1
Structure (SMILES),pEC50 [1],NQO1 level (NQO1),NRF2 level (NRF2),IC50 at 24 h ([2]; BE(2)-M17 neuroblastoma cells) [µM],bioavailability and BBB penetration potential [3],p-CREB (Ser133) level (p-CREB (Ser133)),BDNF level (BDNF),pIC50 [2],BCL2 level (BCL2),TNF-α expression (TNF-α) [%]
Cc1ccc(/C=C/C(=O)c2c(O)c3ccccc3oc2=O)cc1 [LM-016],3.90,81–86%,99–101%,> 100,,,,,,
"CN(C)c1ccc(/C=C/C(=O)c2c(O)c3ccccc3oc2=O)cc1 [LM-021, (E)-3-(3-(4-(dimethylamino)phenyl)acryloyl)-4-hydroxy-2H-chromen-2-one]",4.19,,99–101%,,good bioavailability and BBB penetration potential,102–105%,109–110%,< 4.00,99–110%,
O=C(/C=C/c1ccccc1O)c1c(O)c2ccccc2oc1=O [LM-036],,81–86%,99–101%,,,102–105%,109–110%,< 4.00,99–110%,
"C[n+]1ccc(-c2ccccc2)cc1 [MPP^+, 1-methyl-4-phenyl pyridinium, reference compound]",,,,,,,,,,223

# Source: article PMC11473416, “Coumarin-chalcone derivatives as dual NLRP1 and NLRP3 inflammasome inhibitors targeting oxidative stress and inflammation in neurotoxin-induced HMC3 and BE(2)-M17 cell models of Parkinson's disease” (Frontiers in Aging Neuroscience, 2024)
